Measured values from ChEMBL document CHEMBL6120946, “From Hit to Lead: Discovery of First-In-Class Furanone Glycoside D228 Derived from Chimonanthus salicifolius for the Treatment of Inflammatory Bowel Disease” (J Med Chem, 2024).
Calls of active or inactive are those of the source. The calls are words filed in the database; no cut-off is given here.

Legend:
[1] = system: Mus musculus; assay: Antiinflammatory activity in DSS-induced male C57BL/6 mouse model of inflammatory bowel disease assessed as reduction in weight loss at 15 to 60 mg/kg/day, po via gavage measured upto 14 days; format: functional, organism-based; details: dose 15-60 mg/kg/day, time <= 14.0 day
[2] = system: Mus musculus; assay: Antiinflammatory activity in DSS-induced male C57BL/6 mouse model assessed as inhibition of IL-22 level in colon at 50 to 200 microM/Kg; format: functional, organism-based; details: dose 50-200 µM/Kg
[3] = species: Mus musculus; assay: Antiinflammatory activity in DSS-induced male C57BL/6 mouse model of inflammatory bowel disease assessed as reduction in IRF5 level; format: functional, organism-based
[4] = system: Mus musculus; assay: Antiinflammatory activity in DSS-induced male C57BL/6 mouse model of inflammatory bowel disease assessed as recovery in colon length at 40 mg/kg/day, po measured after 7 days relative to control; format: functional; details: time 7 day
[5] = Clearance in male C57 mouse at 5 mg/kg, po measured upto 24 hrs; format: ADME, organism-based; details: in vivo
[6] = Selectivity ratio of CC50 for cytotoxicity against mouse Splenocyte to IC50 for immunosuppressive activity in mouse T-lymphocyte; format: toxicity; details: splenocytes (CC50) and T-lymphocytes (IC50)
[7] = MRT last in male C57 mouse at 5 mg/kg, po measured upto 24 hrs; format: ADME, organism-based; details: in vivo
[8] = system: Mus musculus; assay: Antiinflammatory activity in DSS-induced male C57BL/6 mouse model of inflammatory bowel disease assessed as recovery from body weight loss at 40 mg/kg/day, po measured after 7 days relative to control; format: functional; details: time 7 day
[9] = AUC infinity in male C57 mouse at 5 mg/kg, po measured upto 24 hrs; format: ADME, organism-based; details: in vivo
[10] = Half life in male C57 mouse at 1 mg/kg, iv measured upto 24 hrs; format: ADME, organism-based; details: in vivo
[11] = Selectivity ratio of CC50 for cytotoxicity against mouse Splenocyte to IC50 for immunosuppressive activity in mouse B-lymphocyte; format: toxicity; details: splenocytes (CC50) and B-lymphocytes (IC50)
[12] = AUC infinity in male C57 mouse at 1 mg/kg, iv measured upto 24 hrs; format: ADME, organism-based; details: in vivo
[13] = system: B-cell line; assay: Immunosuppressive activity in mouse B-lymphocyte assessed as reduction in LPS-induced cell proliferation incubated for 48 hrs; format: functional, cell-based
[14] = system: Mus musculus; assay: Antiinflammatory activity in DSS-induced male C57BL/6 mouse model of inflammatory bowel disease assessed as recovery from body weight loss at 40 mg/kg/day, po measured after 7 days; format: functional, organism-based; details: time 7.0 day
[15] = Cytotoxicity against mouse Splenocyte by MTT assay; format: toxicity, cell-based; details: splenocytes
[16] = Clearance in male C57 mouse at 1 mg/kg, iv measured upto 24 hrs; format: ADME, organism-based; details: in vivo
[17] = Tmax in male C57 mouse at 5 mg/kg, po measured upto 24 hrs; format: ADME, organism-based; details: in vivo
[18] = Half life in male C57 mouse at 5 mg/kg, po measured upto 24 hrs; format: ADME, organism-based; details: in vivo
[19] = Immunosuppressive activity in mouse T-lymphocyte assessed as reduction in concanavalin A-induced cell proliferation incubated for 48 hrs; format: functional, cell-based
[20] = system: Mus musculus; assay: Antiinflammatory activity in DSS-induced male C57BL/6 mouse model of inflammatory bowel disease assessed as amelioration of structural loss of colon at 50 to 200 microM/Kg by H and E staining based analysis; format: functional, organism-based; details: dose 50-200 µM/Kg
[21] = AUC last in male C57 mouse at 5 mg/kg, po measured upto 24 hrs; format: ADME, organism-based; details: in vivo
[22] = AUC last in male C57 mouse at 1 mg/kg, iv measured upto 24 hrs; format: ADME, organism-based; details: in vivo
[23] = MRT last in male C57 mouse at 1 mg/kg, iv measured upto 24 hrs; format: ADME, organism-based; details: in vivo
[24] = Apparent volume of distribution in male C57 mouse at 5 mg/kg, po measured upto 24 hrs; format: ADME, organism-based; details: in vivo
[25] = Apparent volume of distribution in male C57 mouse at 1 mg/kg, iv measured upto 24 hrs; format: ADME, organism-based; details: in vivo, read-out: Vz
[26] = species: Mus musculus; assay: Antiinflammatory activity in DSS-induced male C57BL/6 mouse model of inflammatory bowel disease assessed as reduction in TLR8 level; format: functional, organism-based
[27] = system: Mus musculus; assay: Antiinflammatory activity in DSS-induced male C57BL/6 mouse model of inflammatory bowel disease assessed as recovery from body weight loss at 40 mg/kg/day, ip measured after 14 days relative to control; format: functional; details: time 14 day
[28] = Oral bioavailability in male C57 mouse at 5 mg/kg measured upto 24 hrs; format: ADME, organism-based; details: in vivo
[29] = system: Mus musculus; assay: Antiinflammatory activity in DSS-induced male C57BL/6 mouse model of inflammatory bowel disease assessed as inhibition of MPO expression at 50 to 200 microM/Kg, po by immunohistochemical analysis; format: functional, organism-based; details: dose 50-200 µM/Kg
[30] = system: Mus musculus; assay: Antiinflammatory activity in DSS-induced male C57BL/6 mouse model of inflammatory bowel disease assessed as increase in colon length at 30 mg/kg/day, po via gavage measured upto 14 days relative to control; format: functional; details: time <= 14 day
[31] = Cmax in male C57 mouse at 5 mg/kg, po measured upto 24 hrs; format: ADME, organism-based; details: in vivo
[32] = Acute toxicity in male Kunming mouse assessed as effect on heart 5 g/Kg, po measured after 5 weeks; format: organism-based; details: in vivo, 5000 mg/kg, 840 h
[33] = system: Mus musculus; assay: Antiinflammatory activity in DSS-induced male C57BL/6 mouse model of inflammatory bowel disease assessed as reduction of bloody stool at 22.5 to 45 mg/kg/day, po via gavage measured upto 14 days; format: functional, organism-based; details: dose 22.5-45 mg/kg/day, time <= 14.0 day
[34] = Toxicity in female Kunming mouse assessed as effect on CK level in serum at 100 to 500 mg/kg/day, po measured after 5 weeks; format: organism-based; details: in vivo, 840 h, dose 100-500 mg/kg/day
[35] = Toxicity in male Kunming mouse assessed as effect on Cl inorganic salt level in serum at 100 to 500 mg/kg/day, po measured after 5 weeks; format: organism-based; details: in vivo, 840 h, dose 100-500 mg/kg/day
[36] = Toxicity in female Kunming mouse assessed as effect on CREA level in serum at 100 to 500 mg/kg/day, po measured after 5 weeks; format: organism-based; details: in vivo, 840 h, dose 100-500 mg/kg/day
[37] = Toxicity in male Kunming mouse assessed as effect on AST level in serum at 100 to 500 mg/kg/day, po measured after 5 weeks; format: organism-based; details: in vivo, 840 h, dose 100-500 mg/kg/day
[38] = Toxicity in female Kunming mouse assessed as effect on spleen at 100 to 500 mg/kg/day, po measured after 5 weeks by H and E staining based analysis; format: organism-based; details: in vivo, 840 h, dose 100-500 mg/kg/day
[39] = Metabolic stability in human plasma assessed as half life at pH 7.4 measured upto 60 mins by HPLC-MS analysis; format: ADME, cell-free
[40] = system: Mus musculus; assay: Antiinflammatory activity in DSS-induced male C57BL/6 mouse model of inflammatory bowel disease assessed as upregulation of ZO-1 expression in colon at 50 to 100 microM/Kg by immunohistochemical analysis; format: functional, organism-based; details: dose 50-100 µM/Kg
[41] = Toxicity in male Kunming mouse assessed as effect on kidney at 100 to 500 mg/kg/day, po measured after 5 weeks by H and E staining based analysis; format: organism-based; details: in vivo, 840 h, dose 100-500 mg/kg/day
[42] = system: Mus musculus; assay: Antiinflammatory activity in DSS-induced male C57BL/6 mouse model of inflammatory bowel disease assessed as downregulation of MyD88 expression at 50 to 100 microM/Kg by Western blot analysis; format: functional, organism-based; details: dose 50-100 µM/Kg

CC(C)=C1OC(C)=C(O[C@@H]2O[C@H](CO)[C@@H](O)[C@H](O)[C@H]2O)C1=O
Activity [1]: Active
Activity [2]: Active
Activity [3]: Active
Activity [4]: 50.5%
CL ([5]; mouse, po, 5 mg/kg, 24 h): 475.7 mL/min/kg
selectivity ratio [6]: 0.63
MRT last at 24 h [7]: 254 min
Activity [8]: 45.6%
AUC(0-inf) [9]: 180 ng·h/mL
half-life [10]: 27 min
selectivity ratio [11]: 1.9
AUC(0-inf) [12]: 594 ng·h/mL
IC50 [13]: 85.8 µM
Activity [14]: Active
CC50 [15]: 149 µM
clearance [16]: 28.5 mL/min/kg
Tmax [17]: 15 min
t1/2 ([18]; mouse, po, 5 mg/kg, 24 h): 332 min
IC50 [19]: 308 µM
Activity [20]: Active
AUC(0-t) at 24 h [21]: 177 ng·h/mL
AUC(0-t) at 24 h [22]: 592 ng·h/mL
MRT last at 24 h [23]: 19.8 min
Vz [24]: 29.6 L/kg
Vd [25]: 1.09 L/kg
Activity [26]: Active
Activity [27]: 56.2%
bioavailability [28]: 6%
Activity [29]: Active
Activity [30]: 65.6%
Cmax [31]: 284 ng/mL

CC(=O)OC[C@H]1O[C@@H](OC2=C(C)OC(=C(C)C)C2=O)[C@H](OC(C)=O)[C@@H](OC(C)=O)[C@@H]1OC(C)=O
Activity [4]: 33.3%
CL/F ([5]; male, C57, mouse): 915 mL/min/kg
selectivity ratio [6]: 1.44
Activity [32]: Non-toxic
Activity [33]: Active
MRT last at 24 h [7]: 63.6 min
Activity [34]: Non-toxic
Activity [8]: 27%
Activity [35]: Non-toxic
AUC(0-inf) [9]: 93.6 ng·h/mL
half-life [10]: 16.2 min
Activity [36]: Non-toxic
Activity [37]: Non-toxic
selectivity ratio [11]: 22
AUC(0-inf) [12]: 44 ng·h/mL
IC50 [13]: 3.15 µM
Activity [14]: Active
CC50 [15]: 60 µM
clearance [16]: 397 mL/min/kg
Tmax [17]: 19.8 min
half-life ([18]; male, C57, mouse): 115 min
IC50 [19]: 42.9 µM
AUC(0-t) at 24 h [21]: 58.3 ng·h/mL
Activity [38]: Non-toxic
AUC(0-t) at 24 h [22]: 32.3 ng·h/mL
MRT last at 24 h [23]: 10.2 min
half-life [39]: 27.7 min
Vz [24]: 137.3 L/kg
Vd [25]: 9.25 L/kg
Activity [40]: Active
Activity [41]: Non-toxic
bioavailability [28]: 36.1%
Activity [42]: Active
Cmax [31]: 48.4 ng/mL
